{"source": "paper PMC7318697", "about": "(2020)", "key": {"[1]": {"test_system": "F21T (DNA, G4) GGGTTAGGGTTAGGGTTAGGG", "assay": "FRET melting", "conditions": "10 mM Li cacodylate, ligand 5 μM, DNA 0.2 μM"}, "[2]": {"test_system": "telo23 (DNA, G4) TAGGGTTAGGGTTAGGGTTAGGG", "assay": "UV/Vis titration", "conditions": "K+ (100 mM potassium phosphate), pH 7.4, ligand 10 μM; for K d: apparent, independent and equivalent sites"}, "[3]": {"test_system": "F10T (DNA, hairpin, hexaethylene glycol (HEG) linker between nucleotides 10 and 11) TATAGCTATATATAGCTATA", "assay": "FRET melting", "conditions": "10 mM KCl, 90 mM LiCl; 10 mM Li cacodylate; ligand 5 μM; DNA 0.2 μM"}, "[4]": {"test_system": "FmycT (DNA, G4) TTGAGGGTGGGTAGGGTGGGTAA", "assay": "FRET melting", "conditions": "1 mM KCl, 99 mM LiCl; 10 mM Li cacodylate; ligand 5 μM; DNA 0.2 μM"}, "[5]": {"test_system": "telo23 (DNA, G4) TAGGGTTAGGGTTAGGGTTAGGG", "assay": "1H imino NMR titration", "conditions": "20 mM potassium phosphate, 70 mM KCl; pH 7.0, 298 K, 90% H2O/10% D2O; DNA 185 μM"}, "[6]": {"test_system": "Febr1T (DNA, G4) GGGCAGGGGGTGATGGGGAGGAGCCAGGG", "assay": "FRET melting", "conditions": "10 mM KCl, 90 mM LiCl; 10 mM Li cacodylate; ligand 5 μM; DNA 0.2 μM"}}, "data": [{"smiles": "CN1CCN(CCCNc2ccc3c(c2)/C(=C2/CCc4ccc(NCCCN5CCN(C)CC5)cc42)CC3)CC1", "values": [{"measurement": "ΔT m", "setting": "[1]; 10 mM KCl, 90 mM LiCl", "value": 0, "unit": "°C"}, {"measurement": "ΔT m", "setting": "[1]; 100 mM NaCl", "value": 0, "unit": "°C"}, {"measurement": "binding", "setting": "[2]; Kd too weak for accurate determination", "value": "weak"}, {"measurement": "ΔT m", "setting": "[3]", "value": 0, "unit": "°C"}, {"measurement": "ΔT m", "setting": "[4]", "value": 0, "unit": "°C"}]}, {"smiles": "C[n+]1ccc(-c2ccc3c(c2)/C(=C2/CCc4ccc(-c5cc[n+](C)cc5)cc42)CC3)cc1", "values": [{"measurement": "K d", "setting": "[2]", "value": 70, "unit": "µM"}, {"measurement": "binding", "setting": "[5]", "value": "yes"}, {"measurement": "ΔT m", "setting": "[6]", "value": 9, "unit": "°C"}]}, {"smiles": "CN1CCN(CCCNc2ccc3c(c2)/C(=C2\\CCc4ccc(NCCCN5CCN(C)CC5)cc42)CC3)CC1", "values": [{"measurement": "ΔT m", "setting": "[1]; 10 mM KCl, 90 mM LiCl", "value": 6, "unit": "°C"}, {"measurement": "K d", "setting": "[2]", "value": 70, "unit": "µM"}]}, {"smiles": "C[n+]1ccc(-c2ccc3c(c2)CC/C3=C2/CCc3cc(-c4cc[n+](C)cc4)ccc32)cc1", "values": [{"measurement": "ΔT m", "setting": "[1]; 10 mM KCl, 90 mM LiCl", "value": 28, "unit": "°C"}, {"measurement": "ΔT m", "setting": "[1]; 100 mM NaCl", "value": 19, "unit": "°C"}, {"measurement": "K d", "setting": "[2]", "value": 2, "unit": "µM"}, {"measurement": "ΔT m", "setting": "[3]", "value": 3, "unit": "°C"}, {"measurement": "binding", "setting": "[5]", "value": "yes"}, {"measurement": "ΔT m", "setting": "[4]", "value": 30, "unit": "°C"}, {"measurement": "ΔT m", "setting": "[6]", "value": 17, "unit": "°C"}]}, {"smiles": "C[n+]1ccc(-c2ccc3c(c2)/C(=C2\\CCc4ccc(-c5cc[n+](C)cc5)cc42)CC3)cc1", "values": [{"measurement": "binding", "setting": "[5]", "value": "yes"}, {"measurement": "ΔT m", "setting": "[6]", "value": 22, "unit": "°C"}]}]}
